± gives the expanded uncertainty stated by the source.
Assay: mn = molality of the nth substance listed, in mol/kg
Conditions: 74.66 kPa, Liquid, Vibrating tube method

Question: For `CC(C)C[N+](CC(C)C)(CC(C)C)CC(C)C.[Br-]` [tetra-iso-butyl ammonium bromide] + O, which mass density (298.15 K, m1 = 0.01022) is on record?
Answer: 997.574 ± 0.11 kg/m3

Question: What about the mass density (298.15 K, m1 = 0.02021) of the same molecule?
Answer: 998.092 ± 0.11 kg/m3

Question: What about the mass density (298.15 K, m1 = 0.02983) of the same molecule?
Answer: 998.59 ± 0.11 kg/m3

Question: And the mass density (298.15 K, m1 = 0.03847)?
Answer: 999.027 ± 0.11 kg/m3

Question: What about the mass density (298.15 K, m1 = 0.04829) of the same molecule?
Answer: 999.524 ± 0.11 kg/m3

Question: And the mass density (298.15 K, m1 = 0.05621)?
Answer: 999.922 ± 0.11 kg/m3

Question: What about the mass density (298.15 K, m1 = 0.06888) of the same molecule?
Answer: 1000.56 ± 0.11 kg/m3

Question: What about the mass density (298.15 K, m1 = 0.07666) of the same molecule?
Answer: 1000.96 ± 0.11 kg/m3

Question: And the mass density (298.15 K, m1 = 0.08623)?
Answer: 1001.43 ± 0.11 kg/m3

Question: What about the mass density (298.15 K, m1 = 0.1002) of the same molecule?
Answer: 1002.15 ± 0.11 kg/m3

Question: What about the mass density (303.15 K, m1 = 0.01022) of the same molecule?
Answer: 996.171 ± 0.11 kg/m3

Question: What about the mass density (303.15 K, m1 = 0.02021) of the same molecule?
Answer: 996.676 ± 0.11 kg/m3

Question: What about the mass density (303.15 K, m1 = 0.02983) of the same molecule?
Answer: 997.167 ± 0.11 kg/m3

Question: And the mass density (303.15 K, m1 = 0.03847)?
Answer: 997.6 ± 0.11 kg/m3

Question: And the mass density (303.15 K, m1 = 0.04829)?
Answer: 998.101 ± 0.11 kg/m3

Question: What about the mass density (303.15 K, m1 = 0.05621) of the same molecule?
Answer: 998.499 ± 0.11 kg/m3

Question: What about the mass density (303.15 K, m1 = 0.06888) of the same molecule?
Answer: 999.123 ± 0.11 kg/m3

Question: And the mass density (303.15 K, m1 = 0.07666)?
Answer: 999.518 ± 0.11 kg/m3

Question: What about the mass density (303.15 K, m1 = 0.08623) of the same molecule?
Answer: 999.988 ± 0.11 kg/m3

Question: And the mass density (303.15 K, m1 = 0.1002)?
Answer: 1000.7 ± 0.11 kg/m3

Question: And the mass density (308.15 K, m1 = 0.01022)?
Answer: 994.553 ± 0.11 kg/m3

Question: And the mass density (308.15 K, m1 = 0.02021)?
Answer: 995.043 ± 0.11 kg/m3

Question: And the mass density (308.15 K, m1 = 0.02983)?
Answer: 995.531 ± 0.11 kg/m3

Question: What about the mass density (308.15 K, m1 = 0.03847) of the same molecule?
Answer: 995.96 ± 0.11 kg/m3

Question: What about the mass density (308.15 K, m1 = 0.04829) of the same molecule?
Answer: 996.462 ± 0.11 kg/m3

Question: And the mass density (308.15 K, m1 = 0.05621)?
Answer: 996.855 ± 0.11 kg/m3

Question: And the mass density (308.15 K, m1 = 0.06888)?
Answer: 997.478 ± 0.11 kg/m3

Question: And the mass density (308.15 K, m1 = 0.07666)?
Answer: 997.85 ± 0.11 kg/m3

Question: What about the mass density (308.15 K, m1 = 0.08623) of the same molecule?
Answer: 998.324 ± 0.11 kg/m3

Question: What about the mass density (308.15 K, m1 = 0.1002) of the same molecule?
Answer: 999.035 ± 0.11 kg/m3

Question: What does the source list for `CCC(C)[N+](C(C)CC)(C(C)CC)C(C)CC.[Br-]` (stereo not given) [tetra-sec-butyl ammonium bromide] + O?
Answer: mass density (298.15 K, m1 = 0.0097): 997.488 ± 0.11 kg/m3; mass density (298.15 K, m1 = 0.01981): 997.958 ± 0.11 kg/m3; mass density (298.15 K, m1 = 0.03014): 998.439 ± 0.11 kg/m3; mass density (298.15 K, m1 = 0.04066): 998.953 ± 0.11 kg/m3; mass density (298.15 K, m1 = 0.04983): 999.408 ± 0.11 kg/m3; mass density (298.15 K, m1 = 0.0598): 999.909 ± 0.11 kg/m3; mass density (298.15 K, m1 = 0.07027): 1000.44 ± 0.11 kg/m3; mass density (298.15 K, m1 = 0.07997): 1000.95 ± 0.11 kg/m3; mass density (298.15 K, m1 = 0.08984): 1001.45 ± 0.11 kg/m3; mass density (298.15 K, m1 = 0.1018): 1002.08 ± 0.11 kg/m3; mass density (303.15 K, m1 = 0.0097): 996.085 ± 0.11 kg/m3; mass density (303.15 K, m1 = 0.01981): 996.548 ± 0.11 kg/m3; mass density (303.15 K, m1 = 0.03014): 997.029 ± 0.11 kg/m3; mass density (303.15 K, m1 = 0.04066): 997.518 ± 0.11 kg/m3; mass density (303.15 K, m1 = 0.04983): 997.974 ± 0.11 kg/m3; mass density (303.15 K, m1 = 0.0598): 998.449 ± 0.11 kg/m3; mass density (303.15 K, m1 = 0.07027): 998.977 ± 0.11 kg/m3; mass density (303.15 K, m1 = 0.07997): 999.449 ± 0.11 kg/m3; mass density (303.15 K, m1 = 0.08984): 999.971 ± 0.11 kg/m3; mass density (303.15 K, m1 = 0.1018): 1000.56 ± 0.11 kg/m3; mass density (308.15 K, m1 = 0.0097): 994.477 ± 0.11 kg/m3; mass density (308.15 K, m1 = 0.01981): 994.931 ± 0.11 kg/m3; mass density (308.15 K, m1 = 0.03014): 995.392 ± 0.11 kg/m3; mass density (308.15 K, m1 = 0.04066): 995.891 ± 0.11 kg/m3; mass density (308.15 K, m1 = 0.04983): 996.309 ± 0.11 kg/m3; mass density (308.15 K, m1 = 0.0598): 996.799 ± 0.11 kg/m3; mass density (308.15 K, m1 = 0.07027): 997.293 ± 0.11 kg/m3; mass density (308.15 K, m1 = 0.07997): 997.778 ± 0.11 kg/m3; mass density (308.15 K, m1 = 0.08984): 998.299 ± 0.11 kg/m3; mass density (308.15 K, m1 = 0.1018): 998.923 ± 0.11 kg/m3

Question: For `CCCC[N+](CCCC)(CCCC)CCCC.[Br-]` [tetrabutylammonium bromide] + O, which mass density (298.15 K, m1 = 0.01143) is on record?
Answer: 997.306 ± 0.11 kg/m3

Question: What about the mass density (298.15 K, m1 = 0.02179) of the same molecule?
Answer: 997.542 ± 0.11 kg/m3

Question: What about the mass density (298.15 K, m1 = 0.02564) of the same molecule?
Answer: 997.632 ± 0.11 kg/m3

Question: And the mass density (298.15 K, m1 = 0.03767)?
Answer: 997.89 ± 0.11 kg/m3

Question: What about the mass density (298.15 K, m1 = 0.0459) of the same molecule?
Answer: 998.083 ± 0.11 kg/m3

Question: What about the mass density (298.15 K, m1 = 0.05855) of the same molecule?
Answer: 998.37 ± 0.11 kg/m3

Question: What about the mass density (298.15 K, m1 = 0.0711) of the same molecule?
Answer: 998.631 ± 0.11 kg/m3

Question: What about the mass density (298.15 K, m1 = 0.07968) of the same molecule?
Answer: 998.818 ± 0.11 kg/m3

Question: And the mass density (298.15 K, m1 = 0.09066)?
Answer: 999.091 ± 0.11 kg/m3

Question: And the mass density (298.15 K, m1 = 0.1003)?
Answer: 999.267 ± 0.11 kg/m3

Question: What about the mass density (303.15 K, m1 = 0.01143) of the same molecule?
Answer: 995.897 ± 0.11 kg/m3

Question: And the mass density (303.15 K, m1 = 0.02179)?
Answer: 996.124 ± 0.11 kg/m3

Question: What about the mass density (303.15 K, m1 = 0.02564) of the same molecule?
Answer: 996.207 ± 0.11 kg/m3

Question: What about the mass density (303.15 K, m1 = 0.03767) of the same molecule?
Answer: 996.459 ± 0.11 kg/m3

Question: What about the mass density (303.15 K, m1 = 0.0459) of the same molecule?
Answer: 996.642 ± 0.11 kg/m3

Question: And the mass density (303.15 K, m1 = 0.05855)?
Answer: 996.918 ± 0.11 kg/m3

Question: What about the mass density (303.15 K, m1 = 0.0711) of the same molecule?
Answer: 997.168 ± 0.11 kg/m3

Question: And the mass density (303.15 K, m1 = 0.07968)?
Answer: 997.351 ± 0.11 kg/m3

Question: And the mass density (303.15 K, m1 = 0.09066)?
Answer: 997.608 ± 0.11 kg/m3

Question: And the mass density (303.15 K, m1 = 0.1003)?
Answer: 997.806 ± 0.11 kg/m3

Question: What about the mass density (308.15 K, m1 = 0.01143) of the same molecule?
Answer: 994.271 ± 0.11 kg/m3

Question: And the mass density (308.15 K, m1 = 0.02179)?
Answer: 994.493 ± 0.11 kg/m3

Question: And the mass density (308.15 K, m1 = 0.02564)?
Answer: 994.567 ± 0.11 kg/m3

Question: What about the mass density (308.15 K, m1 = 0.03767) of the same molecule?
Answer: 994.819 ± 0.11 kg/m3

Question: And the mass density (308.15 K, m1 = 0.0459)?
Answer: 994.986 ± 0.11 kg/m3

Question: And the mass density (308.15 K, m1 = 0.05855)?
Answer: 995.247 ± 0.11 kg/m3

Question: And the mass density (308.15 K, m1 = 0.0711)?
Answer: 995.487 ± 0.11 kg/m3

Question: What about the mass density (308.15 K, m1 = 0.07968) of the same molecule?
Answer: 995.662 ± 0.11 kg/m3

Question: And the mass density (308.15 K, m1 = 0.09066)?
Answer: 995.912 ± 0.11 kg/m3

Question: And the mass density (308.15 K, m1 = 0.1003)?
Answer: 996.121 ± 0.11 kg/m3

From the NIST ThermoML archive (doi:10.1016/j.jct.2013.08.031)
